{"source": "patent US20210401776A1", "about": "“METHOD OF TREATING […] SYNDROMES USING FENFLURAMINE ENANTIOMERS” (ZOGENIX INTERNATIONAL LIMITED, priority 2018, published 2021)", "key": {"[1]": {"tested_on": "secondarily generalized focal seizures", "test": "acute 44 mA 6 Hz test", "type": "in vivo, male CF-1 mice", "experimental": "(§1) The antiseizure effects of racemic fenfluramine were assessed in three mouse models of acute and chronic seizures in naïve male CF-1 mice (Envigo (Indianapolis, Ind., USA); 18-35 g): 1) the acute maximal electroshock (MES) test; 2) the acute 44 mA 6 Hz test; and 3) the chronic corneal kindled mouse (CKM) model.\n(§2) Methods: Testing progressed in three phases: identification, time course, and dose response. In the identification phase, mice were administered FFA (3, 10, 30 mg/kg, ip), vehicle, or retigabine (positive control, 20 or 50 mg/kg, ip) 0.5 or 2 hr before testing (n=4/group). […] Dose-dependent anticonvulsant activity of FFA was assessed by testing between 0.25 and 120 mg/kg (n=8/dose). The effect of FFA on mild motor impairment (MMI) in the fixed-speed rotarod (FSR) was assessed prior to the MES, 44 mA 6 Hz, and CKM tests."}, "corneal kindled mouse": {"tested_on": "corneal kindled mouse", "test": "chronic corneal kindled mouse (CKM) model", "type": "in vivo, male CF-1 mice", "experimental": "as §1, §2"}, "6-Hz seizures": {"tested_on": "6-Hz seizures", "test": "acute mouse 6-Hz model (FIG. 9)", "type": "in vivo, NMRI mice", "experimental": "FIG. 9 includes two graphs that summarize the effects of racemic fenfluramine (abbreviated herein as “FA,” “FFA” or “FEN”) treatment in 6-Hz mice, as described in Example 2. FIG. 9A is a bar graph showing the percentage of animals protected for mice treated with vehicle, with […], and with 5 mg/kg FA. […] Protection being defined as the absence of a seizure within the expected time frame (i.e. below the minimum seizure duration in VHC treated mice).\nRapid screening of possible anticonvulsants can be performed by using acute (instead of chronic) animal models of drug-resistant seizures. […] In addition to the protocol using 44 mA pulses, more “lenient” versions of the model using 22 mA or 32 mA currents are sometimes employed."}, "dizocilpine-treated mice [2]": {"tested_on": "dizocilpine-treated mice", "test": "step-through passive avoidance, dizocilpine-induced amnesia model", "type": "in vivo, Male Swiss OF-1 mice"}, "dizocilpine-treated mice [3]": {"tested_on": "dizocilpine-treated mice", "test": "spontaneous alternation in the Y-maze, dizocilpine-induced amnesia model", "type": "in vivo, Male Swiss OF-1 mice"}, "dizocilpine-treated mice [4]": {"tested_on": "dizocilpine-treated mice", "test": "dizocilpine-induced learning deficits, statements covering both tests (Y-maze and passive avoidance)", "type": "in vivo, Male Swiss OF-1 mice", "conditions": "mouse, in vivo", "experimental": "Experiments were conducted to determine the dose-response effects of fenfluramine (FEN) and norfenfluramine (NOR), racemate and (+)- and (−)-isomers, in an in vivo mouse model; the dizocilpine-induced amnesia model (described below) is used to test responses to drugs acting at the sigma-1 receptor (S1R) (Maurice et al., 1994a,b; Maurice, et al., 1998, Neuroscience 83:413-428).\nThe drugs were administered intraperitoneally (“ip” or “IP”) with dizocilpine (0.15 mg/kg) and tested in the spontaneous alternation test on day 1 and in the passive avoidance test on days 2-3.\nThe apparatus consisted of a 2-compartment box, with one illuminated with white polyvinylchloride (PVC) walls and a transparent cover (15×20×15 cm high), one with black polyvinylchloride walls and cover (15×20×15 cm high), and a grid floor. A guillotine door separated each compartment. A 60 W lamp was positioned 40 cm above the apparatus lit the white compartment during the experimental period. Scrambled foot shocks (0.3 mA for 3 s) were delivered to the grid floor using a shock generator scrambler (Lafayette Instruments, Lafayette, Mass., USA). The guillotine door was initially closed during the training session. Each mouse was placed into the white compartment. After 5 s, the door was raised. When the mouse entered the darkened compartment and placed all its paws on the grid floor, the door was gently closed and the 3-scrambled foot shock was delivered for 3 s. The step-through latency, i.e., the latency spent to enter the dark compartment, and the level of sensitivity to the shock were recorded. The latter was evaluated as: 0=no sign; 1=flinching reactions; 2=flinching and vocalization reactions. The retention test was carried out 24 h after training. Each mouse was placed again into the white compartment. After 5 s, the door was raised. The step-through latency was recorded up to 300 s. Animals entered the darkened compartment or were gently pushed into it and the escape latency, i.e., the time spent to return into the white compartment, was also measured up to 300 s. Results were expressed as median and interquartile (25%-75%) range.\nThe Y-maze is made of grey PVC. Each arm is 40 cm long, 13 cm high, 3 cm wide at the bottom, 10 cm wide at the top, and converged at an equal angle. Each mouse was placed at the end of one arm and allowed to move freely through the maze during an 8-min session. The series of arm entries, including possible returns into the same arm, were checked visually. An alternation was defined as entries into all three arms on consecutive occasions. The number of maximum alternations was therefore the total number of arm entries minus two and the percentage of alternation was calculated as: actual alternations/maximum alternations)×100. Parameters included the percentage of alternation (memory index) and total number of arm entries (exploration index)."}, "[5]": {"test": "fixed-speed rotarod, minimal motor impairment (MMI)", "type": "in vivo, male CF-1 mice", "experimental": "as §2"}, "[6]": {"tested_on": "Generalized tonic-clonic seizures", "test": "acute maximal electroshock (MES) test", "type": "in vivo, male CF-1 mice", "experimental": "as §1, §2"}}, "data": [{"molecule": "CCNC(C)Cc1cccc(C(F)(F)F)c1", "note": "(racemic) [Fenfluramine, (RS)—N-ethyl-1-[3-(trifluoromethyl)phenyl]propan-2-amine]", "values": [{"measurement": "protection", "setting": "[1]; 4 hours", "value": "no protection"}, {"measurement": "ED50", "setting": "[1]; Mus musculus, 6 Hz 44 mA, 95% CI 31.9 to 66.7 mg/kg", "value": 47, "unit": "mg/kg"}, {"measurement": "activity in a model of focal seizures that secondarily generalize", "setting": "[1]; mouse, in vivo", "value": "some activity"}, {"measurement": "mice died", "setting": "corneal kindled mouse; 90 mg/kg", "value": "2 of 8"}, {"measurement": "mice died", "setting": "corneal kindled mouse; 120 mg/kg", "value": "6 of 8"}, {"measurement": "anticonvulsant activity", "setting": "corneal kindled mouse; all doses tested", "value": "Minimal anticonvulsant activity at all doses tested"}, {"measurement": "number of mice having seizures and duration of seizures", "setting": "6-Hz seizures; 20 and 5 mg/kg (FIG. 9)", "value": "dose-dependent decrease"}, {"measurement": "seizures in the mouse 6-Hz model", "setting": "6-Hz seizures; Mann-Whitney p<0.05 vs. VHC", "value": "significantly reduced seizures"}, {"measurement": "period of post-seizure aggression", "setting": "6-Hz seizures; vehicle mice displayed it", "value": "did not"}, {"measurement": "PP (%)", "setting": "dizocilpine-treated mice [2]; Table 2 StepThrough/Passive Avoidance, drug alone 0.1 mg/kg IP", "value": "11.0 ± 11.6", "unit": "%"}, {"measurement": "PP (%)", "setting": "dizocilpine-treated mice [2]; Table 2 StepThrough/Passive Avoidance, drug alone 0.3 mg/kg IP", "value": "55.7 ± 10.5", "unit": "%"}, {"measurement": "PP (%)", "setting": "dizocilpine-treated mice [2]; Table 2 StepThrough/Passive Avoidance, drug alone 1 mg/kg IP", "value": "40.8 ± 13.0 ^4%"}, {"measurement": "PP (%)", "setting": "dizocilpine-treated mice [2]; Table 5 STPA, drug alone 0.1 mg/kg ip", "value": "11.2 + 12.0%"}, {"measurement": "PP (%)", "setting": "dizocilpine-treated mice [2]; Table 5 STPA, drug alone 0.3 mg/kg ip", "value": "65.5 ± 12.1^5%"}, {"measurement": "PP (%)", "setting": "dizocilpine-treated mice [2]; Table 6 STPA, drug alone 0.1 mg/kg ip", "value": "16.8 ± 14.2", "unit": "%"}, {"measurement": "PP (%)", "setting": "dizocilpine-treated mice [2]; Table 6 STPA, drug alone 0.3 mg/kg ip", "value": "60.1 ± 13.9 ^5%"}, {"measurement": "PP (%)", "setting": "dizocilpine-treated mice [3]; Table 2 Y-Maze, drug alone 0.1 mg/kg IP", "value": "1.3 ± 7.9", "unit": "%"}, {"measurement": "PP (%)", "setting": "dizocilpine-treated mice [3]; Table 2 Y-Maze, drug alone 0.3 mg/kg IP", "value": "37.9 ± 9.4", "unit": "%"}, {"measurement": "PP (%)", "setting": "dizocilpine-treated mice [3]; Table 2 Y-Maze, drug alone 1 mg/kg IP", "value": "59.8 ± 6.1 ^2%"}, {"measurement": "PP (%)", "setting": "dizocilpine-treated mice [3]; Table 5 YMT, drug alone 0.1 mg/kg ip", "value": "4.4 ± 7.7", "unit": "%"}, {"measurement": "PP (%)", "setting": "dizocilpine-treated mice [3]; Table 5 YMT, drug alone 0.3 mg/kg ip", "value": "33.6 ± 5.7^2%"}, {"measurement": "PP (%)", "setting": "dizocilpine-treated mice [3]; Table 6 YMT, drug alone 0.1 mg/kg ip", "value": "-9.81 ± 7.6^ %"}, {"measurement": "PP (%)", "setting": "dizocilpine-treated mice [3]; Table 6 YMT, drug alone 0.3 mg/kg ip", "value": "26.6 ± 9.8 ^2%"}, {"measurement": "behavior in vivo at S1R", "setting": "dizocilpine-treated mice [4]", "value": "behaved in vivo as S1R positive modulators"}, {"measurement": "Impairment", "setting": "[5]; 6 Hz 44 mA section, 30 mg/kg at 0.25, 0.50, 1.00 and 2.00 hours", "value": "Some impairment found at a dose of 30 mg/kg at timepoints of 0.25, 0.50, 1.00, and"}, {"measurement": "Impairment", "setting": "[5]; 6 Hz 44 mA section, 4 hours", "value": "no impairment"}, {"measurement": "Impairment", "setting": "[5]; at doses used in the MES model", "value": "No impairment on rotarod at doses used in this model"}, {"measurement": "TD50", "setting": "[5]; male, CF-1, mouse, in vivo, intraperitoneal, reported under 6 Hz 44 mA, 95% CI 25.3 to 53.0", "value": 34.6, "unit": "mg/kg"}, {"measurement": "protection", "setting": "[6]; 0.5 hours, 3 mg/kg ip", "value": 0, "unit": "%"}, {"measurement": "protection", "setting": "[6]; 0.5 hours, 10 mg/kg ip", "value": 0, "unit": "%"}, {"measurement": "protection", "setting": "[6]; 0.5 hours, 30 mg/kg ip", "value": 100, "unit": "%"}, {"measurement": "protection", "setting": "[6]; 2.0 hours, 3 mg/kg ip", "value": 75, "unit": "%"}, {"measurement": "protection", "setting": "[6]; 2.0 hours, 10 mg/kg ip", "value": 50, "unit": "%"}, {"measurement": "protection", "setting": "[6]; 2.0 hours, 30 mg/kg ip", "value": 100, "unit": "%"}, {"measurement": "protection, time course at last time point", "setting": "[6]; 4 hours post dosing", "value": "100% protection at 4 hours post dosing"}, {"measurement": "ED50", "setting": "[6]; Mus musculus, MES, Probit regression, 95% CI 1.4 to 5.1 mg/kg", "value": 2.9, "unit": "mg/kg"}, {"measurement": "anticonvulsant effect in the MES model", "setting": "[6]; acute administration", "value": "substantial anticonvulsant effect"}]}]}
